The source of these data is patent US20190352288A1, “MATRIX METALLOPROTEINASE (MMP) INHIBITORS AND METHODS OF USE THEREOF” (Foresee Pharmaceuticals Co., Ltd., priority 2018, published 2019).

The target of the experiment is T1, recombinant human MMP-12 catalytic domain (Homo sapiens, UniProt P39900).
T1 construct: recombinant human MMP-12 catalytic domain; purchased Enzo BML-SE138
The experiment in a line: MMP-12 inhibitory assay (fluorogenic substrate cleavage). It counts as biochemical. As to conditions: readout at 30 minutes, 37° C., Table 1. The procedure:
The inhibitory effect of compounds on the rate of cleaving fluorogenic MMP substrate (Enzo, BML-P128) by recombinant human MMP-12 catalytic domain (Enzo, BML-SE138) was carried out by methods known in the art. Briefly, to each well of a 96-well black opaque plate, all the reagents were sequentially added by pipetting, and the final reaction contained 4 nM of recombinant human MMP-12 catalytic domain, 4 μM of fluorogenic MMP substrate, and various concentrations (0.15 nM to 10,000 nM) of tested compound dilutions in HEPES buffer (pH 7.5) containing 10 mM of CaCl2), 0.01% Brij® 35 (polyoxyethylene (23) lauryl ether), and 0.1 mg/ml of BSA.
The enzyme and compounds were pre-incubated on a shaker to mix in wells. After an hour of mixing, fluorogenic substrate was added to each well. Reaction without enzyme was used as a blank control in the plate. The plate was then fed into a plate reader to measure fluorescence intensity at Excitation/Emission wavelengths of 340 nm/440 nm every 10 mins for at least 1 hour at 37° C. The IC50 of each compound in MMP-12 inhibition was determined by using a readout obtained at time point 30 minutes.

T1 sequence (P39900 106-268 limits assumed): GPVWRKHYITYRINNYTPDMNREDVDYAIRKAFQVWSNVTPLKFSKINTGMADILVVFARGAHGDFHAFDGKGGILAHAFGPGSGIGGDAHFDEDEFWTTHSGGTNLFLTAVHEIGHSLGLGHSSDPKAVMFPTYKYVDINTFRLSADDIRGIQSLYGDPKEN

As usually defined, the IC50 is the point on the concentration scale where inhibition reaches its midpoint. On to `Cc1cccc(COc2ccc(Sc3ccccc3C3NC(=O)NC3=O)cc2)c1` (stereo not shown) [OC-1], for which the half-inhibitory concentration (IC50) was 10 to 100 nM.

Regarding `Cc1cccc(COc2ccc([S+]([O-])c3ccccc3C3NC(=O)NC3=O)cc2)c1` (stereo not shown) [OC-2], the IC50 fell in the range of 100 to 1000 nM. The result for `Cc1cccc(COc2ccc(Sc3cc[n+](O)cc3C3NC(=O)NC3=O)cc2)c1` (stereo not shown) [OC-3] reads 10 to 100 nM; that for `Cc1cccc(COc2ccc(S(=O)(=O)c3cc[n+](O)cc3C3NC(=O)NC3=O)cc2)c1` (stereo not shown) [OC-4], over 1000 nM; that for `Cc1cccc(COc2ccc(Sc3cnn(C)c3C3NC(=O)NC3=O)cc2)c1` (stereo not shown) [OC-5], 10 to 100 nM. The value for `Cc1cccc(COc2ccc(Sc3ncn(C)c3C3NC(=O)NC3=O)cc2)c1` (stereo not shown) [OC-6] was 10 to 100 nM. The result for `Cc1cccc(COc2ccc(Sc3ncoc3C3NC(=O)NC3=O)cc2)c1` (stereo not shown) [OC-10] reads 10 to 100 nM; that for `Cc1cc(COc2ccc(Sc3c(C4NC(=O)NC4=O)ncn3C)cc2)ccn1` (stereo not shown) [OC-14], 10 to 100 nM; that for `Cc1cccc(COc2ccc(Sc3ncccc3C3NC(=O)NC3=O)cc2)c1` (stereo not shown) [PC-1], 10 to 100 nM. Turning to `Cc1cccc(COc2ccc(Sc3ccncc3C3NC(=O)NC3=O)cc2)c1` (stereo not shown) [PC-2], the IC50 fell in the range of 10 to 100 nM. The result for `Cc1cccc(COc2ccc(Sc3cccnc3C3NC(=O)NC3=O)cc2)c1` (stereo not shown) [PC-3] reads 10 to 100 nM; that for `Cc1cccc(COc2ccc(Sc3cnccc3C3NC(=O)NC3=O)cc2)c1` (stereo not shown) [PC-4], 10 to 100 nM; that for `Cc1cccc(COc2ccc([S+]([O-])c3ccncc3C3NC(=O)NC3=O)cc2)c1` (stereo not shown) [PC-5], 100 to 1000 nM.

For `Cc1cccc(COc2ccc(S(=O)(=O)c3ccncc3C3NC(=O)NC3=O)cc2)c1` (stereo not shown) [PC-6], the IC50 was in the range of 100 to 1000 nM.

As to `O=C1NC(=O)C(c2cnccc2Sc2ccc(OCc3ccc(CO)cc3)cc2)N1` (stereo not shown) [PC-7], the IC50 was in the range of 10 to 100 nM. The value for `O=C1NC(=O)C(c2cnccc2Sc2ccc(OCc3ccccc3CO)cc2)N1` (stereo not shown) [PC-9] was 10 to 100 nM. `CC(C)[C@H](N)C(=O)OCc1cccc(COc2ccc(Sc3ccncc3C3NC(=O)NC3=O)cc2)c1` (stereo partly shown) [PC-11]: the 50% inhibitory concentration (IC50) was in the range of 10 to 100 nM.

For the compound `O=C1NC(=O)C(c2ccncc2Sc2ccc(OCc3ccc(CO)cc3)cc2)N1` (stereo not shown) [PC-14], the IC50 was in the range of 10 to 100 nM. Take `Cc1cncc(COc2ccc(Sc3ccncc3C3NC(=O)NC3=O)cc2)c1` (stereo not shown) [PC-17]: the IC50 fell in the range of 100 to 1000 nM. Take `Cc1cncc(COc2ccc(Sc3cnccc3C3NC(=O)NC3=O)cc2)c1` (stereo not shown) [PC-19]: the IC50 is 100 to 1000 nM. The value for `O=C1NC(=O)C(c2cnccc2Oc2ccc(OCc3cccc(C(=O)O)c3)cc2)N1` (stereo not shown) [PC-23] was over 1000 nM. On to `O=C1NC(=O)C(c2cnccc2Oc2ccc(OCc3cccc(CO)c3)cc2)N1` (stereo not shown) [PC-25], for which the IC50 lay within 10 to 100 nM. The value for `Cc1cccc(COc2ccc(Oc3ccncc3C3NC(=O)NC3=O)cc2)c1` (stereo not shown) [PC-26] was 10 to 100 nM; that for `Cc1cc(COc2ccc(Oc3ccncc3C3NC(=O)NC3=O)cc2)ccn1` (stereo not shown) [PC-27] was 10 to 100 nM; that for `CNC(=O)c1cccc(COc2ccc(Sc3ccncc3C3NC(=O)NC3=O)cc2)c1` (stereo not shown) [PC-29] was 10 to 100 nM. The value for `COc1cc(COc2ccc(Sc3ccncc3C3NC(=O)NC3=O)cc2)ccn1` (stereo not shown) [PC-30] was 10 to 100 nM; that for `CCOc1cc(COc2ccc(Sc3ccncc3C3NC(=O)NC3=O)cc2)ccn1` (stereo not shown) [PC-31] was 10 to 100 nM; that for `CC(C)Oc1cc(COc2ccc(Sc3ccncc3C3NC(=O)NC3=O)cc2)ccn1` (stereo not shown) [PC-32] was 10 to 100 nM. For the compound `CC(C)COc1cc(COc2ccc(Sc3ccncc3C3NC(=O)NC3=O)cc2)ccn1` (stereo not shown) [PC-33], the IC50 lay in the range of 100 to 1000 nM.

Consider `NC(=O)c1cncc(COc2ccc(Sc3ccncc3C3NC(=O)NC3=O)cc2)c1` (stereo not shown) [PC-34], for which the IC50 lay in the range of 10 to 100 nM. The value for `O=C1NC(=O)C(c2cnccc2Sc2ccc(OCc3ccnc(O)c3)cc2)N1` (stereo not shown) [PC-35] was 100 to 1000 nM; that for `CNC(=O)c1cncc(COc2ccc(Sc3ccncc3C3NC(=O)NC3=O)cc2)c1` (stereo not shown) [PC-36] was 100 to 1000 nM. As to `NC(=O)c1ccc(COc2ccc(Sc3ccncc3C3NC(=O)NC3=O)cc2)cc1` (stereo not shown) [PC-37], the IC50 was 100 to 1000 nM. In the case of `O=C1NC(=O)C(c2cnccc2Sc2ccc(OCc3cncc(CO)c3)cc2)N1` (stereo not shown) [PC-39], the IC50 was 100 to 1000 nM. The value for `Cc1cc(COc2ccc(Sc3ccncc3C3NC(=O)N(C)C3=O)cc2)ccn1` (stereo not shown) [PC-41] was 100 to 1000 nM; that for `Cc1cc(COc2ccc(Sc3ccncc3C3NC(=O)NC3=O)c(C)c2)ccn1` (stereo not shown) [PC-42] was 10 to 100 nM. The result for `Cc1cc(OCc2ccc(Sc3ccncc3C3NC(=O)NC3=O)cc2)ccn1` (stereo not shown) [PC-44] reads 10 to 100 nM; that for `Cc1cc(COc2ccc(Sc3cc(C)ncc3C3NC(=O)NC3=O)cc2)ccn1` (stereo not shown) [PC-45], 10 to 100 nM; that for `Cc1cc(COc2ccc(Sc3ccncc3C3NC(=O)NC3=O)cc2Cl)ccn1` (stereo not shown) [PC-49], 10 to 100 nM.

On to `Cc1cc(COc2ccc(Sc3ccncc3C3NC(=O)NC3=O)cc2F)ccn1` (stereo not shown) [PC-52], for which the concentration for half-maximal inhibition (IC50) was in the range of 10 to 100 nM.

In the case of `O=C1NC(=O)C(c2ccncc2Sc2ccc(OCc3ccnc(CO)c3)cc2)N1` (stereo not shown) [PC-53], the IC50 was in the range of 10 to 100 nM.

As for `COc1ccc(CN2C(=O)NC(c3cnccc3Sc3ccc(OCc4ccnc(C)c4)cc3)C2=O)cc1` (stereo not shown) [PC-55], the IC50 lay in the range of 100 to 1000 nM. The result for `Cc1cc(CNc2ccc(Sc3ccncc3C3NC(=O)NC3=O)cc2)ccn1` (stereo not shown) [PC-56] reads 10 to 100 nM. The value for `Cc1cc(CCc2ccc(Sc3ccncc3C3NC(=O)NC3=O)cc2)ccn1` (stereo not shown) [PC-57] was 10 to 100 nM; that for `Cc1cc(CN(C)c2ccc(Sc3ccncc3C3NC(=O)NC3=O)cc2)ccn1` (stereo not shown) [PC-58] was 10 to 100 nM; that for `NC(=O)c1cc(COc2ccc(Sc3ccncc3C3NC(=O)NC3=O)cc2)ccn1` (stereo not shown) [PC-59] was 100 to 1000 nM. The result for `NC(=O)c1cc(COc2ccc(Sc3ccncc3C3NC(=O)NC3=O)cc2)ccn1` (stereo not shown) [PC-60] reads 10 to 100 nM; that for `Cc1cc(COc2ccc(Sc3ccncc3C3NC(=O)NC3=O)cn2)ccn1` (stereo not shown) [PC-61], 100 to 1000 nM.

As for `Cc1cc(CCc2ccc(Oc3ccncc3C3NC(=O)NC3=O)cc2)ccn1` (stereo not shown) [PC-62], the 50% inhibitory concentration (IC50) is 100 to 1000 nM. The result for `CCCOc1cccc(COc2ccc(Sc3ccsc3C3NC(=O)NC3=O)cc2)c1` (stereo not shown) [TC1] reads 100 to 1000 nM; that for `CCOc1cccc(COc2ccc(Sc3ccsc3C3NC(=O)NC3=O)cc2)c1` (stereo not shown) [TC2], 100 to 1000 nM; that for `CC(C)Oc1cccc(COc2ccc(Sc3ccsc3C3NC(=O)NC3=O)cc2)c1` (stereo not shown) [TC3], 100 to 1000 nM.
